# PubChem BioAssay (NCI)
#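 Growth conditions: 96-well plates. Treatment: test compound, 48 hours, 5 concentrations. Analysis: linear interpolation between bracketing concentrations; unreached endpoints set to highest concentration. Abbreviation: GI50, concentration required for 50% inhibition of growth. At the TGI there is no net growth.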
# Experiments:
# Test in all cases: NCI tumour cell line growth inhibition, 48 h
# MCF7 breast = test system: MCF7 breast
# T-47D breast = test system: T-47D breast
# BT-549 breast = test system: BT-549 breast
# SW-620 colon = test system: SW-620 colon
# DU-145 prostate = test system: DU-145 prostate
# MDA-MB-231 breast = test system: MDA-MB-231 breast
# A498 renal = test system: A498 renal
# TK-10 renal = test system: TK-10 renal
# NCI-H460 lung = test system: NCI-H460 lung
# SR leukemia = test system: SR leukemia
Compound,GI50 (MCF7 breast) [µM],TGI (MCF7 breast) [µM],GI50 (T-47D breast) [µM],TGI (T-47D breast) [µM],GI50 (BT-549 breast) [µM],TGI (BT-549 breast) [µM],GI50 (SW-620 colon) [µM],TGI (SW-620 colon) [µM],GI50 (DU-145 prostate) [µM],TGI (DU-145 prostate) [µM],GI50 (MDA-MB-231 breast) [µM],TGI (MDA-MB-231 breast) [µM],GI50 (A498 renal) [µM],TGI (A498 renal) [µM],GI50 (TK-10 renal) [µM],TGI (TK-10 renal) [µM],GI50 (NCI-H460 lung) [µM],TGI (NCI-H460 lung) [µM],GI50 (SR leukemia) [µM],TGI (SR leukemia) [µM]
O=C(NN1C(=O)CSC1c1cccc(Cl)c1)C(O)c1ccccc1 (stereo unspecified),> 100,> 100,67.7,> 100,> 100,> 100,> 100,> 100,83.4,> 100,87.7,> 100,> 100,> 100,> 100,> 100,42.8,> 100,–,–
Cc1ccc(S(=O)(=O)c2nc(-c3ccccc3)oc2S(C)(=O)=O)cc1,–,–,1.87,3.93,1.85,3.72,2.05,4.21,1.71,3.15,1.87,3.76,15.4,28.7,1.7,3.1,13.3,27.8,2,7.69
CCOC(=O)C1Cc2ccc3c4c(ccc(c24)C1)CC(C(=O)OCC)C3,–,–,–,–,–,–,–,> 100,–,–,–,–,–,> 100,–,> 100,–,–,–,> 100
CC1(C)COC2C(N(Cc3ccccc3)Cc3ccccc3)C(=O)N21 (stereo unspecified),–,–,–,–,–,–,–,> 100,–,–,–,–,–,> 100,–,> 100,–,> 100,–,54.7
C[N+](C)(C)CC1CCCCC1=O (stereo unspecified),–,–,–,–,–,–,–,29.7,–,–,–,–,–,–,–,> 100,–,> 100,–,–
CN(C)N1C(=O)SCC(c2ccccc2)(c2ccccc2)C1=O,–,> 100,–,> 100,–,–,–,> 100,–,> 100,–,> 100,–,> 100,–,> 100,–,> 100,–,> 100
Cc1cc(NCc2cc(Nc3ccnc4cc(Cl)ccc34)ccc2F)nc(N2CCOCC2)n1,2.12,6.15,1.79,4.26,–,–,1.81,4.7,3.2,12.5,1.83,4.51,1.46,6.89,1.96,3.92,2,4.77,–,–
COC(=O)C(=O)C(CC(=O)Nc1ccc(C)cc1)C(=O)OC (stereo unspecified),–,–,–,–,–,–,–,> 100,–,–,–,–,–,–,–,> 100,–,> 100,–,> 100
COc1ccc(O)c(C(=O)CCC(=O)O)c1,–,–,–,–,–,–,–,> 100,–,–,–,–,–,> 100,–,> 100,–,> 100,–,> 100
CC1=Nc2ccccc2SC(c2c(Cl)cccc2Cl)C1 (stereo unspecified),–,–,–,–,–,–,–,1.34,–,–,–,–,–,3.74,–,3.89,–,3.26,–,–
CCCC(=O)N[C@H]1CCc2cc(OC)c(OC)c(OC)c2-c2ccc(SC)c(=O)cc21,–,> 100,–,> 100,–,< 0.01,–,> 100,–,< 0.01,–,–,–,0.39,–,99.9,–,0.0522,–,> 100
C=C1C(=O)O[C@H]2[C@H]1CC/C(COC(=O)NCc1ccc(Cn3c(=O)sn(CCCCC)c3=O)cc1)=C\CC[C@@]1(C)O[C@@H]21,–,–,1.75,4,1.91,4.62,1.31,2.85,1.68,3.04,1.72,3.46,2.91,10.1,1.96,3.66,3.42,12.5,0.3,2.18
Clc1ccccc1CN1COc2c(ccc3cccnc23)C1,–,–,–,–,–,–,–,12.4,–,–,–,–,–,22.1,–,23.2,–,20.8,–,–
COC(=O)C(C(=O)C(=O)Nc1ccc(C)cc1C)c1csc(-n2nc(-c3ccccc3)cc2-c2ccccc2)n1 (stereo unspecified),–,–,–,–,–,–,–,> 100,–,–,–,–,–,> 100,–,> 100,–,> 100,–,> 100
CC(=O)/C=C/c1ccc(Nc2c3ccccc3nc3occ(Cl)c23)cc1,1.07,14.3,4.82,76.3,4.9,22.7,–,–,–,–,2.63,9.06,–,–,3.87,24.8,2.96,14.6,–,–
CN(C)CCCOc1cccc(NC2=C(Cl)C(=O)C(Nc3cccc(OCCCN(C)C)c3)=C(Cl)C2=O)c1,0.184,0.408,0.243,0.779,1.57,2.93,0.276,0.766,0.765,2,0.655,1.6,1.59,3.01,0.831,2.12,1.8,3.48,–,–
CC1CC2(S(=O)(=O)c3ccccc3)ON1CC2S(=O)(=O)c1ccccc1 (stereo unspecified),–,–,–,–,–,–,–,> 100,–,–,–,–,–,–,–,> 100,–,> 100,–,> 100
O=c1c2c(-c3ccccc3)c3ccccc3nc2cnn1-c1ccccc1,–,–,–,–,–,–,–,> 100,–,–,–,–,–,> 100,–,> 100,–,> 100,–,> 100
COc1cc([C@@H]2c3cc4c(cc3[C@H](OC(C)=O)[C@H]3COC(=O)[C@@H]23)OCO4)cc(OC)c1OC,0.334,> 100,–,–,0.419,> 68.5,0.36,> 100,0.245,0.649,0.388,3.44,0.175,0.583,–,> 100,0.322,3.3,0.153,> 100

Compound,GI50 (MCF7 breast) [µM],TGI (MCF7 breast) [µM],GI50 (T-47D breast) [µM],TGI (T-47D breast) [µM],GI50 (BT-549 breast) [µM],TGI (BT-549 breast) [µM],GI50 (SW-620 colon) [µM],TGI (SW-620 colon) [µM],GI50 (DU-145 prostate) [µM],TGI (DU-145 prostate) [µM],GI50 (MDA-MB-231 breast) [µM],TGI (MDA-MB-231 breast) [µM],GI50 (A498 renal) [µM],TGI (A498 renal) [µM],GI50 (TK-10 renal) [µM],TGI (TK-10 renal) [µM],GI50 (NCI-H460 lung) [µM],TGI (NCI-H460 lung) [µM],GI50 (SR leukemia) [µM],TGI (SR leukemia) [µM]
CCOc1cccc2c1N[S@@](=O)S2,–,–,–,–,–,–,–,> 100,–,–,–,–,–,–,–,> 100,–,–,–,> 100
COc1cc2c(c3c1c(=O)c1ccccc1n3C)C=CC(C)(C)O2,–,–,–,–,–,–,–,> 100,–,–,–,–,–,–,–,> 100,–,> 100,–,39.5
CC(=O)OC(C(=O)[O][Sn]([CH3])([CH3])[CH3])c1ccccc1 (stereo unspecified),–,–,–,–,–,–,> 100,> 100,–,–,–,–,> 100,> 100,> 100,> 100,> 100,> 100,> 100,> 100
COc1cc(C2=NN(C(C)=O)C(c3cc(OC)c(OC)c(OC)c3)C2)ccc1O (stereo unspecified),0.276,> 100,–,–,1.09,> 100,0.296,> 100,0.383,> 33.9,1.79,> 100,0.26,7.52,0.723,> 100,0.346,> 40.8,0.0985,–
C#CCN(N=O)C(=O)ON1C(=O)CCC1=O,–,–,–,–,–,–,–,> 100,–,–,–,–,–,> 100,–,> 100,–,> 100,–,–
O=C1CCC2(c3ccccc3)Nc3ccccc3N12 (stereo unspecified),–,–,–,–,–,–,–,> 100,–,–,–,–,–,> 100,–,> 100,–,> 100,–,–
CCCN(CCC)c1ccc(C=O)c(Cl)c1,1.8,29.4,0.375,5.1,24,> 80.4,20.9,> 100,48,> 100,18.9,43.7,0.141,0.289,0.262,1.17,2.19,39.3,–,–
CN/N=C(/c1nc2ccc([N+](=O)[O-])cc2[nH]c1=O)C(O)c1ccc(C(O)/C(=N\NC)c2nc3ccc([N+](=O)[O-])cc3[nH]c2=O)cc1 (stereo unspecified),–,–,–,–,–,–,–,> 100,–,–,–,–,–,> 100,–,> 100,–,> 100,–,–
CCOc1ccc(N=C(NC(=O)c2ccccc2)SC)cc1,–,–,–,–,–,–,–,> 100,–,–,–,–,–,> 100,–,> 100,–,> 100,–,> 100
N=c1c2ccccc2sc2nc3ccccc3n12,–,–,–,–,–,–,–,> 100,–,–,–,–,–,> 100,–,> 100,–,> 100,–,> 100
COc1ccc(/C=C2\CCC(CCN(C)C)(C3=CCCC3)C2=O)cc1 (stereo unspecified),–,–,–,–,–,–,–,31,–,–,–,–,–,34.8,–,30.7,–,40.5,–,88.5
C=C1C(=O)OC2C1CCC(C)C1(O)C=CC(=O)C21C (stereo unspecified),–,> 10,–,> 10,–,–,–,> 10,–,–,–,–,–,> 10,–,> 10,–,> 10,–,> 10
COC(=O)c1cc(=O)nc2cc3cccccc3n12,–,–,–,–,–,–,–,> 100,–,–,–,–,–,> 100,–,> 100,–,> 100,–,> 100
C1=Cc2nc1c(-c1ccccc1)c1ccc([nH]1)c(-c1ccccc1)c1nc(c(-c3ccccc3)c3ccc([nH]3)c2-c2ccccc2)C=C1,–,–,–,–,–,–,–,> 100,–,–,–,–,–,> 100,–,> 100,–,> 100,–,> 100
CN(C)c1ccc(/C=C(\NC(=O)c2ccccc2)c2nc3ccc4c(c3[nH]2)C(=O)c2ccccc2C4=O)cc1,–,–,–,–,–,–,–,> 100,–,–,–,–,–,> 100,–,> 100,–,> 100,–,–
CC(/C=C/C(O)=C1/C(=O)CNC1=O)=C\[C@@H](C)[C@H]1O[C@@]2(C)O[C@H](C(=O)[C@@H]3O[C@@]32C)[C@@H]1C,–,39.8,–,37.3,–,36.3,–,> 100,–,40.1,–,38.1,–,29.1,–,44.2,–,–,–,–
CCCCCCC(O)CC[C@H]1CCC[C@@H](C)N1 (stereo partly specified),–,–,–,–,–,–,–,> 100,–,–,–,–,–,> 10,–,> 100,–,> 100,–,> 100
COC/N=C(\NC#N)NCOC,–,–,–,–,–,–,–,> 59.7,–,–,–,–,–,> 100,–,> 100,–,> 100,–,54.6
